Activity calls are given as the source filed them. Rule as the data show it, for most assays here: actives have a measured Kd and inactives only a lower limit.
Legend:
[1] = molecular target: Macrophage-stimulating protein receptor (Homo sapiens, UniProt Q04912)
[2] = molecular target: T1, DNA replication licensing factor MCM4 (Homo sapiens, UniProt P33991)
T1 sequence (P33991 whole entry): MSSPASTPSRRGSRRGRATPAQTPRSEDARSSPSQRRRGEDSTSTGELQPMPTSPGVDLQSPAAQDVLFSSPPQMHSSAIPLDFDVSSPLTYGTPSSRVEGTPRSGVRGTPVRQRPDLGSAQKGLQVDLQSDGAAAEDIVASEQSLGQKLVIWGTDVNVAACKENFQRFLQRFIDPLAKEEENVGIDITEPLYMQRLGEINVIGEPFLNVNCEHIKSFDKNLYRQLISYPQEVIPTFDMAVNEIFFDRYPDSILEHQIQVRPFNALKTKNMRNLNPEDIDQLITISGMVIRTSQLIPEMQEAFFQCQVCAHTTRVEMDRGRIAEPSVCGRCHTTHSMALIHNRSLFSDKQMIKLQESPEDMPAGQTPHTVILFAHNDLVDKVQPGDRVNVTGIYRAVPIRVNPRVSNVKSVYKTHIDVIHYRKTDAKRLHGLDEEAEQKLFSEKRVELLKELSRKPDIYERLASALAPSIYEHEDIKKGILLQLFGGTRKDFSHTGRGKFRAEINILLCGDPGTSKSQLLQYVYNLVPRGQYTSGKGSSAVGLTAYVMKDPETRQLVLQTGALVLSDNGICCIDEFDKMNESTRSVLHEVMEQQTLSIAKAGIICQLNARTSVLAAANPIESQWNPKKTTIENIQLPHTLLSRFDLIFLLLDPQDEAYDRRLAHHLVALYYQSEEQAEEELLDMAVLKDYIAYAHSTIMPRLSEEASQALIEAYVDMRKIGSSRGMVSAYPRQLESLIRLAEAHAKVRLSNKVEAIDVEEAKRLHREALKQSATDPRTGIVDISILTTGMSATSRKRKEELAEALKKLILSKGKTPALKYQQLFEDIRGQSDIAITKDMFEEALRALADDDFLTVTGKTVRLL

[3] = molecular target: 5'-AMP-activated protein kinase catalytic subunit alpha-1 (Homo sapiens, UniProt Q13131)
5'-AMP-activated protein kinase catalytic subunit alpha-1, sequence (Q13131 whole entry): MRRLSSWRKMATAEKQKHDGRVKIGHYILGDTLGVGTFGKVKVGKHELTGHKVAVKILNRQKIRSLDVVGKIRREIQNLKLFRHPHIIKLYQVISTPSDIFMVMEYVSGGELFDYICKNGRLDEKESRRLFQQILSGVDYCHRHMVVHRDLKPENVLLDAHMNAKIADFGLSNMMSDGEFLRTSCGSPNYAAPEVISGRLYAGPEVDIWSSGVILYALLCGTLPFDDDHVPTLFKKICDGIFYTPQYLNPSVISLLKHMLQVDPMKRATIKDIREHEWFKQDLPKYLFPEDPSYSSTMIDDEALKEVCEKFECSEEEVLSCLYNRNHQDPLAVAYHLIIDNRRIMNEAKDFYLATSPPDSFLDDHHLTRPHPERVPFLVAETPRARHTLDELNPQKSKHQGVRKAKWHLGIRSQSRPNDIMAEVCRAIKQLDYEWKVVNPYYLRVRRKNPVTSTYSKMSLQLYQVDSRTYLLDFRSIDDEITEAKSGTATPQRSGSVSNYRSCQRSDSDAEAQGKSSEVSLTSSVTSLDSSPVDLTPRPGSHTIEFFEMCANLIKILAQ

[4] = molecular target: T2, Ribosyldihydronicotinamide dehydrogenase [quinone] (Homo sapiens, UniProt P16083)
T2 sequence (P16083 whole entry): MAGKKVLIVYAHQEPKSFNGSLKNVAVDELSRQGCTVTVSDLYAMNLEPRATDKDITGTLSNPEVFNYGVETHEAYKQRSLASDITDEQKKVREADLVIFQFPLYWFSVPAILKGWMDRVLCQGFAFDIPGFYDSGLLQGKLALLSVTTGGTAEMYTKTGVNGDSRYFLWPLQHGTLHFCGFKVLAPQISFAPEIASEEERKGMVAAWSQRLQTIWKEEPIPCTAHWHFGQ

[5] = molecular target: T3, Serine/threonine-protein kinase ULK1 (Homo sapiens, UniProt O75385)
T3 sequence (O75385 whole entry): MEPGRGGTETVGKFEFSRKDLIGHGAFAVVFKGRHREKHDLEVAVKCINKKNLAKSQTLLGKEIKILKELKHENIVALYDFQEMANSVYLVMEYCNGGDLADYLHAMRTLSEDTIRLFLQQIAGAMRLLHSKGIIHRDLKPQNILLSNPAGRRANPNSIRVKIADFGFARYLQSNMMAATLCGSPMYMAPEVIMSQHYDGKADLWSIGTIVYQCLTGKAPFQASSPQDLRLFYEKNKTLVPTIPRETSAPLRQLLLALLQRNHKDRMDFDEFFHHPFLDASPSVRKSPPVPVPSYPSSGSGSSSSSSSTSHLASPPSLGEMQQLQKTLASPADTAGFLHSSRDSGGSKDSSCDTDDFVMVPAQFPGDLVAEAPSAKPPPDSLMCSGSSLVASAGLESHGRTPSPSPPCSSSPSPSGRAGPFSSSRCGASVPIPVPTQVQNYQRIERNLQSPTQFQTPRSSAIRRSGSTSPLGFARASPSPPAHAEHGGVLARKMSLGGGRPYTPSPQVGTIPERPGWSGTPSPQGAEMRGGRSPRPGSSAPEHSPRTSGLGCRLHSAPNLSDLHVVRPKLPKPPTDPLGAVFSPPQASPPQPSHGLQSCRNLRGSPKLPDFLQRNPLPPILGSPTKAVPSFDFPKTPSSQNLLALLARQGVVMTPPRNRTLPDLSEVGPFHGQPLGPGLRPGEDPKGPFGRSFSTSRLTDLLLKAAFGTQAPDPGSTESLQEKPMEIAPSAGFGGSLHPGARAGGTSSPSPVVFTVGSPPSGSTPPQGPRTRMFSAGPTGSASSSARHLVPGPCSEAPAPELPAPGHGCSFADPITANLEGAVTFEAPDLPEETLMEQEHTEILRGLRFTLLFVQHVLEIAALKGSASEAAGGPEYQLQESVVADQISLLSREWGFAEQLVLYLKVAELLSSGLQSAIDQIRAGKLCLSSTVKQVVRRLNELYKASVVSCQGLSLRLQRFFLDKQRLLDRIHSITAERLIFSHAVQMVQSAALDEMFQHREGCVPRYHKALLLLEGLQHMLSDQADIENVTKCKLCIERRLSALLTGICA
Also: in the data inactive means no Kd found up to 30 µM.

Macrophage-stimulating protein receptor, sequence (Q04912 25-304 limits assumed): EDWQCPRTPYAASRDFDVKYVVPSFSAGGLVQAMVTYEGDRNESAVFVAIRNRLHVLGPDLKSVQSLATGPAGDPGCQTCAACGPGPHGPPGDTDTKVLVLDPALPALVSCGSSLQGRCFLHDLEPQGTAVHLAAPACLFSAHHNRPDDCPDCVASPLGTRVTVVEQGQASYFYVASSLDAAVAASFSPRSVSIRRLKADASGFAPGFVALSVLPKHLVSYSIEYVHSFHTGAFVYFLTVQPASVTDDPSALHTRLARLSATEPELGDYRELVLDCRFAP
Macrophage-stimulating protein receptor, sequence (Q04912 310-1400 limits assumed): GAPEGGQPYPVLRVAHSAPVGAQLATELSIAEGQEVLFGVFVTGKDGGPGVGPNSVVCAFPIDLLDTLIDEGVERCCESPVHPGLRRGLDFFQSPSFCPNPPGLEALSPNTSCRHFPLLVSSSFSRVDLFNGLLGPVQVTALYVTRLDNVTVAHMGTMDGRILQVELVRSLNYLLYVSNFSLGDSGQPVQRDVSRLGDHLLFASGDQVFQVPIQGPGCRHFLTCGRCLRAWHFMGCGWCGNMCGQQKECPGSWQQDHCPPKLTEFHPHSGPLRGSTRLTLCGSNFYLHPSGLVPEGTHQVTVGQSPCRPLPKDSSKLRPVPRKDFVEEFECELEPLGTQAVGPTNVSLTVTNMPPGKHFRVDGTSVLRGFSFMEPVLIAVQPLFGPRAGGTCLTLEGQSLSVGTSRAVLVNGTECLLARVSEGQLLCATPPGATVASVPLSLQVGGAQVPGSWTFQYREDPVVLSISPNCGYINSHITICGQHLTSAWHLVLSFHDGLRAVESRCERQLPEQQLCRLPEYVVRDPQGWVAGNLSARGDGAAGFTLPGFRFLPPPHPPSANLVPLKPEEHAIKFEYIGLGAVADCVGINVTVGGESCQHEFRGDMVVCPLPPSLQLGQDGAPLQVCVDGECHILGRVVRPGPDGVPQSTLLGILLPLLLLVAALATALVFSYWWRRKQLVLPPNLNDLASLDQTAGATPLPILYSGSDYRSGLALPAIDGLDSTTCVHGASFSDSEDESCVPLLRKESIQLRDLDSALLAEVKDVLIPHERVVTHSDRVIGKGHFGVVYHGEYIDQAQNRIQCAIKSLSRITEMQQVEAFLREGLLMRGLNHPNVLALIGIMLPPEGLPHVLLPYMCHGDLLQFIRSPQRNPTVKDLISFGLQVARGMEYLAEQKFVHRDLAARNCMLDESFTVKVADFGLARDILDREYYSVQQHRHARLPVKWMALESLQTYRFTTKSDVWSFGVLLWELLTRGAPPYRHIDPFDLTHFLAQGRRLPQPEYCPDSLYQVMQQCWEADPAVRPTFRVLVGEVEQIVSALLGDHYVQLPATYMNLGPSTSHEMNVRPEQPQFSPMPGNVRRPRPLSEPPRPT

| Structure (SMILES) | Kd [1] | Kd [2] | Kd [3] | Kd [4] | Kd [5] |
| --- | --- | --- | --- | --- | --- |
| COc1ccc(-c2ccc3ncc4c(c3c2)n(-c2ccc(N3CCNCC3)c(C(F)(F)F)c2)c(=O)n4C)cn1 [BGT-226 FREE BASE] | > 30 µM (inactive) | > 30 µM (inactive) | > 30 µM (inactive) | > 30 µM (inactive) | > 30 µM (inactive) |
| Cc1cc(Nc2nc(N[C@@H](C)c3ncc(F)cn3)ncc2Cl)n[nH]1 [AZD-1480] | > 30 µM (inactive) | > 30 µM (inactive) | > 30 µM (inactive) | > 30 µM (inactive) | > 30 µM (inactive) |
| CCc1cc2c(cc1N1CCC(N3CCOCC3)CC1)C(C)(C)c1[nH]c3cc(C#N)ccc3c1C2=O [ALECTINIB] | > 30 µM (inactive) | > 30 µM (inactive) | > 30 µM (inactive) | > 30 µM (inactive) | > 30 µM (inactive) |
| FC(F)(F)c1ccc(CNc2ccc(Cc3c[nH]c4ncc(Cl)cc34)cn2)cn1 [PEXIDARTINIB] | > 30 µM (inactive) | > 30 µM (inactive) | > 30 µM (inactive) | > 30 µM (inactive) | > 30 µM (inactive) |
| O=S(=O)(c1cccc2c(O)nccc12)N1CCCNCC1 [HYDROXYFASUDIL] | > 30 µM (inactive) | > 30 µM (inactive) | > 30 µM (inactive) | > 30 µM (inactive) | 23.3 µM (active) |

Reference: ChEMBL document CHEMBL3991601, “The target landscape of clinical kinase drugs” (Science, 2017)
